{
  "source": "patent US20110104300A1",
  "about": "“Methods for Screening Chemical, Biological, and Physical Agents for Disinfecting Infectious Norovirus” (KIM LABORATORIES, INC., priority 2009, published 2011)",
  "key": {"[1]": {"tested_on": "Norovirus", "test": "Suspension testing: Norovirus-positive stool in suspension, test agent, PBST neutralization, IMS bead capture, qRT-PCR", "set-up": "species or system human", "conditions": "for antiviral activity against Norovirus (in words): nanosilver at any concentration tested, alcohol up to 70%; for Log Reduction: Suspension"}, "[2]": {"tested_on": "Human Norovirus", "test": "Hard surface testing: Norovirus-positive stool dried on surface, test agent, PBST neutralization, IMS bead capture, qRT-PCR", "method": "For this method, a Norovirus-positive human stool sample was allowed to dry on the surface of a material. A sterilized surface material (e.g., stainless steel, ceramic, porcelain, or fabric, etc.), in this case a round stainless steel plate, was placed into the center of a sterile deep Petri dish. 20 μl of Norovirus-positive human stool sample was added to the center of the stainless steel plate. The stool sample was dried onto the surface of the material for 30 minutes at room temperature.\n100 μl of a test agent (e.g., a chemical disinfectant) was added on top of the dried stool sample. 100 μl of a neutral buffer, phosphate buffered saline-TWEEN® 20 (polysorbate) (PBST), was used as a negative control (in place of the test agent). 100 μl of 20% household bleach, (10500 ppm sodium hypochlorite, prepared fresh) was used as a positive control (in place of the test agent). The sample and the test agent, neutral buffer, and either 20% household bleach or 10500 ppm sodium hypochlorite were incubated at room temperature for as short as one minute to as long as 60 minutes.\n40 ml of PBST was added over the surface to fully submerge the surface material and to dislodge the entire dried stool sample. 40 ml PBST acts as a neutralizer for the test compound by dilution. If necessary, the dried stool sample was scraped with the end of a sterile pipette tip. The mixture was shaken for 15 minutes (at ˜150 rpm) in an orbital shaker at room temperature.\nThe supernatant is transferred to a 50 ml screw cap centrifuge tube (or similar container). 10-100 μl of Norovirus specific antibody conjugated IMS beads were added, and the resulting mixture was incubated for 1-2 hours with end over rotation (5-10 RPM). The Norovirus specific antibody was monoclonal antibody P2B2 (Kim Laboratories, Inc., Rantoul, Ill.). A tube was placed in a magnetic stand for 15 minutes to capture the IMS beads. The supernatant was removed, with care being taken not to dislodge the IMS beads. […]"}},
  "data": [
    {"molecule": "CCO", "note": "[alcohol]", "values": [
      {"measurement": "antiviral activity against Norovirus (in words)", "setting": "[1]; Suspension testing", "result": "ineffective"}
    ]},
    {"molecule": "OCl", "note": "[Sodium Hypochlorite]", "values": [
      {"measurement": "Log Reduction", "setting": "[2]; Hard surface (porcelain tile), 20% of household bleach by Clorox brand", "result": ">5", "unit": "log"},
      {"measurement": "Norovirus disinfection (in words)", "setting": "[2]; Hard surface testing, bleach dilution more than 2-3 weeks old", "result": "not effective"},
      {"measurement": "antiviral activity against Human Norovirus (in words)", "setting": "[2]; Hard surface testing, nanosilver at any concentration tested", "result": "showed antiviral activity"},
      {"measurement": "Norovirus disinfection (in words)", "setting": "[1]; Suspension testing, bleach dilution more than 2-3 weeks old, data not shown", "result": "not effective"},
      {"measurement": "antiviral activity against Norovirus (in words)", "setting": "[1]; Suspension testing", "result": "showed antiviral activity"},
      {"measurement": "Log Reduction", "setting": "[1]; 20% of household bleach by Clorox brand", "result": ">5", "unit": "log"}
    ]},
    {"molecule": "CCO", "note": "[Ethanol solution, Ethanol]", "values": [
      {"measurement": "Log Reduction", "setting": "[1]; 70%", "result": 1.3, "unit": "log"}
    ]},
    {"molecule": "O=S(=O)([O-])O[O-].[K+].[K+]", "note": "[potassium peroxymonosulfate]", "values": [
      {"measurement": "antiviral activity against Norovirus (in words)", "setting": "[1]; Suspension testing", "result": "ineffective"}
    ]},
    {"molecule": "Povidone Iodine", "values": [
      {"measurement": "Log Reduction", "setting": "[1]; 5%", "result": 1.1, "unit": "log"}
    ]},
    {"molecule": "O=C(O)CC(O)(CC(=O)O)C(=O)O", "note": "[Citric Acid Solution, Citric Acid]", "values": [
      {"measurement": "antiviral activity against Norovirus (in words)", "setting": "[1]; Suspension testing", "result": "ineffective"},
      {"measurement": "Log Reduction", "setting": "[1]; 0.6%", "result": 1.26, "unit": "log"}
    ]},
    {"molecule": "CC(O)C(=O)O", "note": "(centres unmarked) [lactic acid]", "values": [
      {"measurement": "antiviral activity against Norovirus (in words)", "setting": "[1]; Suspension testing", "result": "ineffective"}
    ]},
    {"molecule": "OO", "note": "[hydrogen peroxide]", "values": [
      {"measurement": "antiviral activity against Norovirus (in words)", "setting": "[1]; Suspension testing", "result": "ineffective"}
    ]}
  ]
}
